Data as given in EP4745135A1 (Gluetacs Therapeutics (Shanghai) Co., Ltd., priority 2023, dated 2025).
pIC50: −log10 of the molar value.

Experiments:
CK1α = molecular target: T1, CK1α (Homo sapiens, UniProt P48729+Q96SW2); assay: Western blot, degradation of substrate protein in hPBMCs; format: cell-based; settings: Western blot, 24 hours of compound treatment, compounds tested at 50 nM and 500 nM (concentration for the table not stated)
T1 construct: effects of the compounds of the present disclosure on the expression of target proteins in cells; endogenous in cells; host or cells: human PBMCs (Milecell Biotechnologies)
T1 sequence (P48729 whole entry): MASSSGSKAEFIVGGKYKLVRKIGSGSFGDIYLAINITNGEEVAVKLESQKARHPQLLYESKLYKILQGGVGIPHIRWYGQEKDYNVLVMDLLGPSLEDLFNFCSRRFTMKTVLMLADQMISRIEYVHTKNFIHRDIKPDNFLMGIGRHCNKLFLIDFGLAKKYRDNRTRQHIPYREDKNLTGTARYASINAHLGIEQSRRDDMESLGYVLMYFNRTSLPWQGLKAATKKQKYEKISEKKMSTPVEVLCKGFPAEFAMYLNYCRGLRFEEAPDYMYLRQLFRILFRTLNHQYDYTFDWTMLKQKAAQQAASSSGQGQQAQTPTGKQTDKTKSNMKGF
T1 sequence (Q96SW2 whole entry): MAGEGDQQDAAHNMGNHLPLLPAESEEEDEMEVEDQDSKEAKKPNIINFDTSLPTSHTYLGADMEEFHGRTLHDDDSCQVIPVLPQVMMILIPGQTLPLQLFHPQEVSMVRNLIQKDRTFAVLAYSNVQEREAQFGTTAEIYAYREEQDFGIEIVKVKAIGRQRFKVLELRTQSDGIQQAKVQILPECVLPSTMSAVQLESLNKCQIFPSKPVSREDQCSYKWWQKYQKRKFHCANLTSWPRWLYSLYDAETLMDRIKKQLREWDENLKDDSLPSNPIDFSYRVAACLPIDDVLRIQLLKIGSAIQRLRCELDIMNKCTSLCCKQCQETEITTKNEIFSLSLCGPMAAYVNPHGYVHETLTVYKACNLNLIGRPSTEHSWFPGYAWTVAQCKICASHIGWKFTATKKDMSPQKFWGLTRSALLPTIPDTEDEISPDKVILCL
T1 sequence (Q16531 whole entry partner): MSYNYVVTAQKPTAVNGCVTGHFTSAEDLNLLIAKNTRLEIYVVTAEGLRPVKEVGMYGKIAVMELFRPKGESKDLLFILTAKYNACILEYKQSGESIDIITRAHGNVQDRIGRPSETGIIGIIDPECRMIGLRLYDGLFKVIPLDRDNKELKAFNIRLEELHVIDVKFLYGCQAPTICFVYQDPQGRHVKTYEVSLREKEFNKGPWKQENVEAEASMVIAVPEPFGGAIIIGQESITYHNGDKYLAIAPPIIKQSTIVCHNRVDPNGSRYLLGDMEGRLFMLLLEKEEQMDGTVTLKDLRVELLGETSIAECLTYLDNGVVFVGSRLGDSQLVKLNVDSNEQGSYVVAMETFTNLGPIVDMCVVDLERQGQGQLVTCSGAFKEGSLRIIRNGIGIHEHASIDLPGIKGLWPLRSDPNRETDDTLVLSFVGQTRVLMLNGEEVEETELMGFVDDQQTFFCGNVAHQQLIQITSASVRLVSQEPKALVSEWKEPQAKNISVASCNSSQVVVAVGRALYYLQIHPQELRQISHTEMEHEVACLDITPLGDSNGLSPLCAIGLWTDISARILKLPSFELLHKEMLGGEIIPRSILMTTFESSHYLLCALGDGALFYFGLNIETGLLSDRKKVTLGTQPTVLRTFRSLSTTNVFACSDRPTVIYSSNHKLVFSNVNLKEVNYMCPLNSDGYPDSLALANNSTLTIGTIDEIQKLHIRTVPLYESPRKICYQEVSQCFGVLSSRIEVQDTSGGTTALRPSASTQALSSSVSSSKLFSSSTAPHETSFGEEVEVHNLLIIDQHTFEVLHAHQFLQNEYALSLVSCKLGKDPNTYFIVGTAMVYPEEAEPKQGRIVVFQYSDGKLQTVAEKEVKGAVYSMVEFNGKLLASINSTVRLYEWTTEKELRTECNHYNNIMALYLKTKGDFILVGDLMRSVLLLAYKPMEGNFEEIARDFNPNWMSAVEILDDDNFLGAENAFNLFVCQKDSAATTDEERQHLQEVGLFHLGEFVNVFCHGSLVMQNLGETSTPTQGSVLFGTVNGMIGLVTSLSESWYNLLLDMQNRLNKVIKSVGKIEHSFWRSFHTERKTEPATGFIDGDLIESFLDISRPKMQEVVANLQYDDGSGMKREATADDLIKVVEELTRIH

IKZF1 = molecular target: T2, IKZF1 (Homo sapiens, UniProt Q13422+Q96SW2); assay: as above; format: cell-based; settings: Western blot, 24 hours of compound treatment, compounds tested at 50 nM and 500 nM (concentration for the table not stated)
T2 construct: effects of the compounds of the present disclosure on the expression of target proteins in cells; endogenous in cells; host or cells: human PBMCs (Milecell Biotechnologies)
T2 sequence (Q13422 whole entry): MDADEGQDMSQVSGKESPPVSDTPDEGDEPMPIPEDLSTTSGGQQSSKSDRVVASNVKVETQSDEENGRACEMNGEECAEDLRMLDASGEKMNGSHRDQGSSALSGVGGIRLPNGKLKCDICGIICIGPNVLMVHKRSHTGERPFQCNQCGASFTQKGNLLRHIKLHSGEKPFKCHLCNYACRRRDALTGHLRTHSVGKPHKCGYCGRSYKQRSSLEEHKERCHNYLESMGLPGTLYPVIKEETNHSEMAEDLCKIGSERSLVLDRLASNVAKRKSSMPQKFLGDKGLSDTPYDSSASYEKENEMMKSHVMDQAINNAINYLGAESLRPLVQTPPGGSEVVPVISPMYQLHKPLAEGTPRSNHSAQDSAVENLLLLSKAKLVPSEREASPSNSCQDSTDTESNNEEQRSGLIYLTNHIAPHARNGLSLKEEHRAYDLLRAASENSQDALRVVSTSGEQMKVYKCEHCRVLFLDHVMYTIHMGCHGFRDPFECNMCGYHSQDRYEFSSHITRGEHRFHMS
T2 sequence (Q96SW2 whole entry): as the sequence (Q96SW2 whole entry) above
T2 sequence (Q16531 whole entry partner): as the sequence (Q16531 whole entry partner) above

IKZF2 = molecular target: T3, IKZF2 (Homo sapiens, UniProt Q96SW2+Q9UKS7); assay: as above; format: cell-based; settings: Western blot, 24 hours of compound treatment, compounds tested at 50 nM and 500 nM (concentration for the table not stated)
T3 construct: effects of the compounds of the present disclosure on the expression of target proteins in cells; endogenous in cells; host or cells: human PBMCs (Milecell Biotechnologies)
T3 sequence (Q9UKS7 whole entry): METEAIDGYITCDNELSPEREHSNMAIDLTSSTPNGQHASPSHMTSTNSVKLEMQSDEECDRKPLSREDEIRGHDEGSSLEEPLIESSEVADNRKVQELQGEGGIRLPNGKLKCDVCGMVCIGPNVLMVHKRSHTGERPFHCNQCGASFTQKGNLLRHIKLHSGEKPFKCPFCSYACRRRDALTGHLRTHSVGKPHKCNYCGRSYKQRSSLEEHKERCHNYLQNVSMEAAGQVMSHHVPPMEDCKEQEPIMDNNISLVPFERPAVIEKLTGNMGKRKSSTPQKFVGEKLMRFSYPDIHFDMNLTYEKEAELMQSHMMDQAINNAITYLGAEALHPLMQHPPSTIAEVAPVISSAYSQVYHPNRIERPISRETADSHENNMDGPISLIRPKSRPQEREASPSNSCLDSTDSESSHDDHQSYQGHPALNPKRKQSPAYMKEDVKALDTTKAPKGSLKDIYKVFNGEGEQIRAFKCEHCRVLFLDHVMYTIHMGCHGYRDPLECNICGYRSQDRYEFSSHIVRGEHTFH
T3 sequence (Q96SW2 whole entry): as the sequence (Q96SW2 whole entry) above
T3 sequence (Q16531 whole entry partner): as the sequence (Q16531 whole entry partner) above

IKZF3 = molecular target: T4, IKZF3 (Homo sapiens, UniProt Q96SW2+Q9UKT9); assay: as above; format: cell-based; settings: Western blot, 24 hours of compound treatment, compounds tested at 50 nM and 500 nM (concentration for the table not stated)
T4 construct: effects of the compounds of the present disclosure on the expression of target proteins in cells; endogenous in cells; host or cells: human PBMCs (Milecell Biotechnologies)
T4 sequence (Q9UKT9 whole entry): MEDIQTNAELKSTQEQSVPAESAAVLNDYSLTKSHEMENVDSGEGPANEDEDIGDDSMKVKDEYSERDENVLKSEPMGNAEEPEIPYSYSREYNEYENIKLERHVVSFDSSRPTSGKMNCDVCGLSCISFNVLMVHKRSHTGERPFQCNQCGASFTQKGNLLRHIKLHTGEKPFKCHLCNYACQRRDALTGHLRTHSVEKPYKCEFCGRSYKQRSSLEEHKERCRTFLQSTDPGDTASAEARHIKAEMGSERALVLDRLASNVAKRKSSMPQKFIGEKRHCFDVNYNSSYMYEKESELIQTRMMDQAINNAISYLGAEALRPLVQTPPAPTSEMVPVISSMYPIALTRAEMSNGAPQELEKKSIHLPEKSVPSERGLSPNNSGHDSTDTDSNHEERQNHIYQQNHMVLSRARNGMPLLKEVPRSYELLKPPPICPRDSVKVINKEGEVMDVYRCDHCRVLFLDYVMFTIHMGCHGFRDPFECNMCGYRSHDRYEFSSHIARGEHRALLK
T4 sequence (Q96SW2 whole entry): as the sequence (Q96SW2 whole entry) above
T4 sequence (Q16531 whole entry partner): as the sequence (Q16531 whole entry partner) above

WEE1 = molecular target: T5, WEE1 (Homo sapiens, UniProt P30291+Q96SW2); assay: as above; format: cell-based; settings: Western blot, 24 hours of compound treatment, compounds tested at 50 nM and 500 nM (concentration for the table not stated)
T5 construct: effects of the compounds of the present disclosure on the expression of target proteins in cells; endogenous in cells; host or cells: human PBMCs (Milecell Biotechnologies)
T5 sequence (P30291 whole entry): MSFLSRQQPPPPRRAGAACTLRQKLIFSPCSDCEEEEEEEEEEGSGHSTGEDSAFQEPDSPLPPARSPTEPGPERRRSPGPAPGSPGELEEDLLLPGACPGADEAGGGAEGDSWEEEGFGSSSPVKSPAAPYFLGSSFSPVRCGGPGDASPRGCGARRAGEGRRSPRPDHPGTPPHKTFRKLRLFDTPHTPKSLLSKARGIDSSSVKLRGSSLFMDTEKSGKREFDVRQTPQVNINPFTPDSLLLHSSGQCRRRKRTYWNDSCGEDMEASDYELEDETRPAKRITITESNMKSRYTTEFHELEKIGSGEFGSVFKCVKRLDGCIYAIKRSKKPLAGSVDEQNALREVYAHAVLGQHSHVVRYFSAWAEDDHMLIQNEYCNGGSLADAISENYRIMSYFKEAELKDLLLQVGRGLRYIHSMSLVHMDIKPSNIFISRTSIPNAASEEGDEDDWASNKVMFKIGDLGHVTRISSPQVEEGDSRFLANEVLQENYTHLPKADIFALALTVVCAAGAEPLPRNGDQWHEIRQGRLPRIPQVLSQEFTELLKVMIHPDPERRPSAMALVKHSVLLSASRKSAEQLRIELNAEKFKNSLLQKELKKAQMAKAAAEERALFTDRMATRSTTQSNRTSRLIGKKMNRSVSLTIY
T5 sequence (Q96SW2 whole entry): as the sequence (Q96SW2 whole entry) above
T5 sequence (Q16531 whole entry partner): as the sequence (Q16531 whole entry partner) above

GSPT1 = assay: as above; format: cell-based, Human; settings: Western blot, 24 hours of compound treatment, compounds tested at 50 nM and 500 nM (concentration for the table not stated)
[1] = molecular target: T6, human Cereblon WT GST-tagged protein (Homo sapiens, UniProt Q96SW2); assay: CRBN-binding affinity, HTRF (CEREBLON BINDING kit); settings: for inhibition at 0.5 µM: read-out: Inhibition Rate at 0.5 µM (%); for inhibition at 2 µM: read-out: Inhibition Rate at 2 µM (%)
T6 construct: purchased CISBIO 64BDCRBNPEH
T6 sequence (Q96SW2 whole entry): as the sequence (Q96SW2 whole entry) above

[2] = tested on: Human multiple myeloma cell (MM.1S); assay: Tumor cell proliferation inhibition (CellTiter-Meiluncell luminescent cell viability assay); settings: for inhibition at 0.01 µM: read-out: Inhibition Rate at 10 nM (%); for inhibition at 0.5 µM: read-out: Inhibition Rate at 500 nM (%)

SMILES	CK1α substrate protein remaining % (CK1α)	IKZF 1 substrate protein remaining % (IKZF1)	IKZF2 substrate protein remaining % (IKZF2)	IKZF3 substrate protein remaining % (IKZF3)	Wee1 substrate protein remaining % (WEE1)	GSPT1 substrate protein remaining % (GSPT1)	inhibition at 0.5 µM [1]	inhibition at 2 µM [1]	inhibition at 0.01 µM ([2]; Homo sapiens, MM1.S, 96 h)	Inhibition Rate at 500 nM (%) ([2]; MM.1S, 96 hours)	pIC50 ([1]; CRBN binding, HTRF, 3 hours at room temperature, read-out: HTRF IC50)	IC50 ([2]; Homo sapiens, MM1.S, 96 h, read-out: Inhibitory activity (IC50, nM) on tumor cell proliferation, MM.1S)	inhibition at 0.5 µM ([2]; Homo sapiens, MM1.S, 96 h)	Inhibition Rate at 10 nM (%) ([2]; MM.1S, 10 nM, 96 hours)
O=C1CCC(N2Cc3c(CN4C[C@H]5C[C@@H]4CN5c4cccc(Cl)c4Cl)cccc3C2=S)C(=O)N1 (stereo in doubt) [GT-08467, 3-(4-(((1R,4R)-5-(2,3-dichlorophenyl)-2,5-diazabicyclo[2.2.1]heptan-2-yl)methyl)-1-thioxoisoindolin-2-yl)piperidine-2,6-dione]	B (80%< substrate protein remaining %≤ 100%)	B (80%< substrate protein remaining %≤ 100%)	A (0% ≤ substrate protein remaining % ≤ 80%)	B (80%< substrate protein remaining %≤ 100%)	B (80%< substrate protein remaining %≤ 100%)	A (0% ≤ substrate protein remaining % ≤ 80%)	30 to 40%	60 to 80%	10 to 20%	la7	–	–	–	–
O=C1CCC(N2Cc3cc(CN4C[C@@H]5C[C@H]4CN5c4cccc(Cl)c4Cl)ccc3C2=S)C(=O)N1 (stereo partly drawn) [GT-05183, 3-(5-(((1S,4S)-5-(2,3-dichlorophenyl)-2,5-diazabicyclo[2.2.1]heptan-2-yl)methyl)-1-thioxoisoindolin-2-yl)piperidine-2,6-dione]	B (80%< substrate protein remaining %≤ 100%)	B (80%< substrate protein remaining %≤ 100%)	B (80%< substrate protein remaining %≤ 100%)	A (0% ≤ substrate protein remaining % ≤ 80%)	B (80%< substrate protein remaining %≤ 100%)	A (0% ≤ substrate protein remaining % ≤ 80%)	–	–	–	–	6.30 to 7.00	50 to 100 nM	–	–
O=C1CCC(N2Cc3c(CN4CC=C(c5ccnc(F)c5F)CC4)cccc3C2=S)C(=O)N1 (centres unmarked) [GT-08464, 3-(4-((2',3'-difluoro-3,6-dihydro-[4,4'-bipyridin]-1(2H)-yl)methyl)-1-thioxoisoindolin-2-yl)piperidine-2,6-dione]	B (80%< substrate protein remaining %≤ 100%)	B (80%< substrate protein remaining %≤ 100%)	B (80%< substrate protein remaining %≤ 100%)	B (80%< substrate protein remaining %≤ 100%)	A (0% ≤ substrate protein remaining % ≤ 80%)	A (0% ≤ substrate protein remaining % ≤ 80%)	60 to 80%	60 to 80%	50 to 60%	la5	–	–	–	–
O=C1CCC(N2Cc3cc(CN4CCC(c5ccc(Cl)cc5)CC4)ccc3C2=S)C(=O)N1 (centres unmarked) [GT-08619, 3-(5-((4-(4-chlorophenyl)piperidin-1-yl)methyl)-1-thioxoisoindolin-2-yl)piperidine-2,6-dione]	B (80%< substrate protein remaining %≤ 100%)	B (80%< substrate protein remaining %≤ 100%)	B (80%< substrate protein remaining %≤ 100%)	B (80%< substrate protein remaining %≤ 100%)	B (80%< substrate protein remaining %≤ 100%)	A (0% ≤ substrate protein remaining % ≤ 80%)	40 to 53%	80 to 100%	20 to 30%	–	–	–	40 to 50%	–
O=C1CCC(N2Cc3cc(CN4CCC(c5cccc(C(F)(F)F)c5)CC4)ccc3C2=S)C(=O)N1 (centres unmarked) [GT-08623, 3-(1-thioxo-5-((4-(3-(trifluoromethyl)phenyl)piperidin-1-yl)methyl)isoindolin-2-yl)piperidine-2,6-dione]	B (80%< substrate protein remaining %≤ 100%)	B (80%< substrate protein remaining %≤ 100%)	A (0% ≤ substrate protein remaining % ≤ 80%)	B (80%< substrate protein remaining %≤ 100%)	B (80%< substrate protein remaining %≤ 100%)	B (80%< substrate protein remaining %≤ 100%)	40 to 53%	80 to 100%	30 to 40%	–	–	–	40 to 50%	–
COc1cccc(N2CCN(Cc3ccc4c(c3)CN(C3CCC(=O)NC3=O)C4=S)CC2)c1 (centres unmarked) [GT-08237, 3-(5-((4-(3-methoxyphenyl)piperazin-1-yl)methyl)-1-thioxoisoindolin-2-yl)piperidine-2,6-dione]	B (80%< substrate protein remaining %≤ 100%)	B (80%< substrate protein remaining %≤ 100%)	B (80%< substrate protein remaining %≤ 100%)	B (80%< substrate protein remaining %≤ 100%)	B (80%< substrate protein remaining %≤ 100%)	A (0% ≤ substrate protein remaining % ≤ 80%)	53 to 60%	80 to 100%	–	–	–	–	40 to 50%	1la6
O=C1CCC(N2Cc3c(CN4CC=C(c5ncc6ccsc6n5)CC4)cccc3C2=S)C(=O)N1 (centres unmarked) [GT-08965, 3-(4-((4-(thieno[2,3-d]pyrimidin-2-yl)-3,6-dihydropyridin-1(2H)-yl)methyl)-1-thioxoisoindolin-2-yl)piperidine-2,6-dione]	–	–	–	–	–	–	80 to 100%	80 to 100%	30 to 40%	–	–	–	40 to 50%	–
O=C1CCC(N2Cc3cc(CN4CCN(c5ncnc6sc(-c7ccccc7)cc56)CC4)ccc3C2=S)C(=O)N1 (centres unmarked) [GT-09296, 3-(5-((4-(6-phenylthieno[2,3-d]pyrimidin-4-yl)piperazin-1-yl)methyl)-1-thioxoisoindolin-2-yl)piperidine-2,6-dione]	–	–	–	–	–	–	60 to 80%	80 to 100%	40 to 50%	la7	–	–	–	–
O=C1CCC(N2Cc3c(CN4CCC(c5ccc(F)cc5)CC4)cccc3C2=S)C(=O)N1 (centres unmarked) [GT-08596, 3-(4-((4-(4-fluorophenyl)piperidin-1-yl)methyl)-1-thioxoisoindolin-2-yl)piperidine-2,6-dione]	B (80%< substrate protein remaining %≤ 100%)	B (80%< substrate protein remaining %≤ 100%)	A (0% ≤ substrate protein remaining % ≤ 80%)	B (80%< substrate protein remaining %≤ 100%)	A (0% ≤ substrate protein remaining % ≤ 80%)	B (80%< substrate protein remaining %≤ 100%)	–	–	40 to 50%	–	–	–	50 to 60%	–
O=C1CCC(N2Cc3cc(CN4CCC(C5CCOc6cc(F)ccc65)CC4)ccc3C2=S)C(=O)N1 (centres unmarked) [GT-09274, 3-(5-((4-(7-fluorochroman-4-yl)piperidin-1-yl)methyl)-1-thioxoisoindolin-2-yl)piperidine-2,6-dione]	–	–	–	–	–	–	60 to 80%	80 to 100%	30 to 40%	–	–	–	40 to 50%	–
O=C1CCC(N2Cc3c(CN4CCC(c5ccccc5F)CC4)cccc3C2=S)C(=O)N1 (centres unmarked) [GT-08595, 3-(4-((4-(2-fluorophenyl)piperidin-1-yl)methyl)-1-thioxoisoindolin-2-yl)piperidine-2,6-dione]	B (80%< substrate protein remaining %≤ 100%)	B (80%< substrate protein remaining %≤ 100%)	A (0% ≤ substrate protein remaining % ≤ 80%)	B (80%< substrate protein remaining %≤ 100%)	A (0% ≤ substrate protein remaining % ≤ 80%)	B (80%< substrate protein remaining %≤ 100%)	–	–	40 to 50%	–	–	–	50 to 60%	–
